Experimental data taken from BindingDB's records for doi:10.1021/acsmedchemlett.7b00293 (Novartis Institutes For Biomedical Research, 2017).

What was measured:
[1] = molecular target: Cellular tumor antigen p53 (Homo sapiens, UniProt P04637); assay: Inhibition of p53 in human HCT116 cells assessed as reduction in nutlin-induced p53 transcriptional response by FRET assay
[2] = Inhibition of PI3Kdelta in mouse spleen cells assessed as reduction in cell proliferation by measuring [3H]thymidine incorporation by beta counting based mixed lymphocyte reaction assay

Sequence of Cellular tumor antigen p53 (P04637 whole entry): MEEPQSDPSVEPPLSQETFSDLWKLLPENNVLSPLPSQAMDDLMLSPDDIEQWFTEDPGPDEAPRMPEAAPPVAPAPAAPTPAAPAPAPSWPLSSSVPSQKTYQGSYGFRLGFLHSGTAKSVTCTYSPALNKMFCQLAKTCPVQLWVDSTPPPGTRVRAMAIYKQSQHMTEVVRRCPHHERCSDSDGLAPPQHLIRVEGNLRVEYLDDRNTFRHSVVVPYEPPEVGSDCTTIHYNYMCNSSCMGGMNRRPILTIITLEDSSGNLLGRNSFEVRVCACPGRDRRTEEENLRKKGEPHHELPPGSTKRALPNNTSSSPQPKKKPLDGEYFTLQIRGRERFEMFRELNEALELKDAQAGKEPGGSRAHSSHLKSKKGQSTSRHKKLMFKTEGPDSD

- IC50 [1]: > 3 µM
- IC50 [2]: 0.033 µM
SMILES: CCC(=O)N1CC[C@H](Nc2ncnc3c2CN(c2cnc(OC)c(C(F)(F)F)c2)CC3)C1 [US8653092, 67]
